In publication PMC7546796, “Myricanol Inhibits the Type III Secretion System of Salmonella enterica Serovar Typhimurium by Interfering With the DNA-Binding Activity of HilD” (Frontiers in Microbiology, 2020):

Molecular target: HilD (Salmonella enterica, UniProt P0CL08)
Assay: microscale thermophoresis with dye-labeled purified HilD; supported by thermal shift, DARTS and EMSA
Type: binding

HilD, sequence (P0CL08 whole entry): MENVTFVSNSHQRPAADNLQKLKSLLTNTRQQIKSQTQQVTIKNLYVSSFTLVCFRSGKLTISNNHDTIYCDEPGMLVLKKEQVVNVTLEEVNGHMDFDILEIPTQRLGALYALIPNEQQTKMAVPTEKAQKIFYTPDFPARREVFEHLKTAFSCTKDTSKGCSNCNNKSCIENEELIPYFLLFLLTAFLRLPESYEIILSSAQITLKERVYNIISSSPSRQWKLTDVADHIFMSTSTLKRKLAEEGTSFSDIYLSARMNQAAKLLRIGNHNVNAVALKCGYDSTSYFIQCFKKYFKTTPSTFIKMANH

COc1c2cc(c(O)c1OC)CCCC[C@@H](O)CCc1ccc(O)c-2c1 [compound 1, myricanol]
Kd: 1.38 ± 0.53 µM
